Source: ChEMBL document CHEMBL4814030, “Optimization of ether and aniline based inhibitors of lactate dehydrogenase” (Bioorg Med Chem Lett, 2021)
≈ marks a conversion by molar mass, not a printed value.

biological target: T1, L-lactate dehydrogenase A chain (Homo sapiens, UniProt P00338); assay: Inhibition of LDHA in human MIA PaCa2 cells assessed as reduction in lactate production incubated for 2 hrs by fluorescence based assay; format: cell-based, MIA PaCa-2; settings: not given

| SMILES | IC50 |
| --- | --- |
| CC(C)(C)NC(=O)c1cc(-c2nn(-c3nc(C(=O)O)cs3)c(CC3CC3)c2Cc2ccc(S(N)(=O)=O)c(F)c2)ccc1F | 11700 nM |
| NS(=O)(=O)c1ccc(Cc2c(-c3cccc(Oc4cccc(F)c4)c3)nn(-c3nc(C(=O)O)cs3)c2CC2CC2)cc1 | 19000 nM |
| CC(C)N1CC2(CN(c3cc(-c4nn(-c5nc(C(=O)O)cs5)c(CC5CC5)c4Cc4ccc(S(N)(=O)=O)c(F)c4)ccc3F)C2)C1 | 24100 nM |
| NS(=O)(=O)c1ccc(Cc2c(-c3cccc(N4CCC(C(F)(F)F)CC4)c3)nn(-c3nc(C(=O)O)cs3)c2CC2CC2)cc1F | 2400 nM |
| NS(=O)(=O)c1ccc(Cc2cn(-c3nc(C(=O)O)cs3)nc2-c2cccc(Oc3ccccc3)c2)cc1 | 9400 nM |

More lines, in order of falling IC50, values ahead:

| IC50 | SMILES |
| --- | --- |
| 7500 nM | Cc1ccc(COc2cccc(-c3nn(-c4nc(C(=O)O)cs4)cc3Cc3ccc(S(N)(=O)=O)cc3)c2)cc1 |
| 6000 nM | NS(=O)(=O)c1ccc(Cc2c(-c3ccc(F)c(N4CCCC4=O)c3)nn(-c3nc(C(=O)O)cs3)c2CC2CC2)cc1F |
| 1100 nM | NS(=O)(=O)c1ccc(Cc2c(-c3ccc(F)c(Oc4ccc(C(F)(F)F)cc4)c3)nn(-c3nc(C(=O)O)cs3)c2CC2CC2)cc1F |
| 870 nM | Cc1ccc(Oc2cc(-c3nn(-c4nc(C(=O)O)cs4)c(CC4CC4)c3Cc3ccc(S(N)(=O)=O)c(F)c3)ccc2F)cc1 |

tested on: not listed separately; assay: Permeability of compound by PAMPA; format: ADME; settings: read-out: permeability

| Papp | SMILES |
| --- | --- |
| 13 ×10⁻⁶ cm/s | Cc1ccc(Oc2cc(-c3nn(-c4nc(C(=O)O)cs4)c(CC4CC4)c3Cc3ccc(S(N)(=O)=O)c(F)c3)ccc2F)cc1 |

biological target: T1, L-lactate dehydrogenase A chain; assay: Binding affinity to LDHA (unknown origin) by SPR analysis; settings: not given

| Kd | SMILES |
| --- | --- |
| 1.1 nM | Cc1ccc(Oc2cc(-c3nn(-c4nc(C(=O)O)cs4)c(CC4CC4)c3Cc3ccc(S(N)(=O)=O)c(F)c3)ccc2F)cc1 |

tested on: not listed separately; assay: Kinetic solubility of compound; format: physicochemical; settings: read-out: Kinetic_solubility

| solubility kinetic | SMILES |
| --- | --- |
| 24 µg/mL (≈ 37.7 µM) | Cc1ccc(Oc2cc(-c3nn(-c4nc(C(=O)O)cs4)c(CC4CC4)c3Cc3ccc(S(N)(=O)=O)c(F)c3)ccc2F)cc1 |

tested on: A673; assay: Cytotoxicity against human A673 cells assessed as reduction in cell viability incubated for 48 hrs by cell titer glo assay; format: functional, cell-based; settings: A673, 48 h

| SMILES | IC50 |
| --- | --- |
| Cc1ccc(Oc2cc(-c3nn(-c4nc(C(=O)O)cs4)c(CC4CC4)c3Cc3ccc(S(N)(=O)=O)c(F)c3)ccc2F)cc1 | 550 nM |

tested on: MIA PaCa-2; assay: Cytotoxicity against human MIA PaCa-2 cells assessed as reduction in cell viability incubated for 48 hrs by cell titer glo assay; format: functional, cell-based; settings: MIA PaCa-2, 48 h

| SMILES | IC50 |
| --- | --- |
| Cc1ccc(Oc2cc(-c3nn(-c4nc(C(=O)O)cs4)c(CC4CC4)c3Cc3ccc(S(N)(=O)=O)c(F)c3)ccc2F)cc1 | 2100 nM |

biological target: T1, L-lactate dehydrogenase A chain; assay: Inhibition of recombinant human LDHA using sodium pyruvate as substrate preincubated for 5 mins followed by diaphorase/resazurin addition and measured after 20 mins by fluorescence based assay; settings: not given

| SMILES | IC50 |
| --- | --- |
| CC(C)(C)NC(=O)c1cc(-c2nn(-c3nc(C(=O)O)cs3)c(CC3CC3)c2Cc2ccc(S(N)(=O)=O)c(F)c2)ccc1F | 6 nM |
| NS(=O)(=O)c1ccc(Cc2c(-c3cccc(Oc4cccc(F)c4)c3)nn(-c3nc(C(=O)O)cs3)c2CC2CC2)cc1 | 1060 nM |
| CC(C)N1CC2(CN(c3cc(-c4nn(-c5nc(C(=O)O)cs5)c(CC5CC5)c4Cc4ccc(S(N)(=O)=O)c(F)c4)ccc3F)C2)C1 | 37 nM |
| NS(=O)(=O)c1ccc(Cc2c(-c3cccc(N4CCC(C(F)(F)F)CC4)c3)nn(-c3nc(C(=O)O)cs3)c2CC2CC2)cc1F | 47 nM |
| NS(=O)(=O)c1ccc(Cc2cn(-c3nc(C(=O)O)cs3)nc2-c2cccc(Oc3ccccc3)c2)cc1 | 17 nM |

Next, values leading:

| IC50 | SMILES |
| --- | --- |
| 39 nM | Cc1ccc(COc2cccc(-c3nn(-c4nc(C(=O)O)cs4)cc3Cc3ccc(S(N)(=O)=O)cc3)c2)cc1 |
| 111 nM | NS(=O)(=O)c1ccc(Cc2c(-c3ccc(F)c(N4CCCC4=O)c3)nn(-c3nc(C(=O)O)cs3)c2CC2CC2)cc1F |
| 71 nM | NS(=O)(=O)c1ccc(Cc2c(-c3ccc(F)c(Oc4ccc(C(F)(F)F)cc4)c3)nn(-c3nc(C(=O)O)cs3)c2CC2CC2)cc1F |
| 26 nM | Cc1ccc(Oc2cc(-c3nn(-c4nc(C(=O)O)cs4)c(CC4CC4)c3Cc3ccc(S(N)(=O)=O)c(F)c3)ccc2F)cc1 |

biological target: T1, L-lactate dehydrogenase A chain; assay: Inhibition of LDHA in human A673 cells assessed as reduction in lactate production incubated for 2 hrs by fluorescence based assay; format: cell-based; settings: not given

| IC50 | SMILES |
| --- | --- |
| 550 nM | Cc1ccc(Oc2cc(-c3nn(-c4nc(C(=O)O)cs4)c(CC4CC4)c3Cc3ccc(S(N)(=O)=O)c(F)c3)ccc2F)cc1 |

tested on: not listed separately; assay: Metabolic stability in rat microsomes assessed as half life; format: ADME, Microsome; settings: not given

| t1/2 | SMILES |
| --- | --- |
| 6.2 min | Cc1ccc(Oc2cc(-c3nn(-c4nc(C(=O)O)cs4)c(CC4CC4)c3Cc3ccc(S(N)(=O)=O)c(F)c3)ccc2F)cc1 |
